Counter-ions that a name gives are not always drawn.
Tested on: IRE1-XBP1s (HEK293 T-REx cells stably expressing the XBP1-RLuc splicing reporter)
Test: IRE1-XBP1s activation Assay (XBP1-RLuc splicing reporter, luminescence relative to thapsigargin, with or without IRE1 inhibitor 4μ8C)
Assay type: cell-based
Conditions: 18 h, compound 10 μM, luminescence as percentage signal relative to thapsigargin (Tg) (500 nM, 18 h)
Method: IRE1-XBP1s activation Assay: HEK293 T-REx cells stably expressing the XBP1-RLuc splicing reporter were treated with an IRE1-XBP1s activator provided herein (10 μM) in the presence or absence of the IRE1 active site inhibitor 4μ8C (32 μM) for 18 h. Luminescence was shown as the percentage signal relative to thapsigargin (Tg) (500 nM, 18 h).

SMILES | activation at 10 µM
Cc1ccc(OCCN(C)C(=O)Cn2cc(NC(=O)[C@H]3CC[C@@H](Oc4ccccc4)CC3)cn2)cc1 [Compound 1, (cis)-N-(1-(2-(methyl(2-(p-tolyloxy)ethyl)amino)-2-oxoethyl)-1H-pyrazol-4-yl)-4-phenoxycyclohexanecarboxamide] | < 30%
Cc1ccc(OCCN(C)C(=O)Cn2cc(NC(=O)c3cccc(Oc4ccccc4)c3)cn2)cc1 [Compound 2] | < 30%
Cc1ccc(OCCN(C)C(=O)Cn2cc(NC(=O)c3ccc(Oc4ccccc4)cc3)cn2)cc1 [Compound 3] | < 30%
O=C(CCOc1ccccc1)Nc1cnn(CC(=O)N2CCCC(Oc3ccc(C(F)(F)F)cc3)C2)c1 (stereo not shown) [Compound 4, N-(1-(2-oxo-2-(3-(4-(trifluoromethyl)phenoxy)piperidin-1-yl)ethyl)-1H-pyrazol-4-yl)-3-phenoxypropanamide hydrochloride] | 30 to 50%
Cc1ccc(OCCN(C)C(=O)Cn2cc(NC(=O)[C@H]3CC[C@H](Oc4ccccc4)CC3)cn2)cc1 [Compound 5] | < 30%
Cc1ccc(OCCN(C)C(=O)Cn2cc(NC(=O)[C@H]3C[C@@H](c4ccccc4)C3)cn2)cc1 [Compound 6] | ≥ 50%
Cc1ccc(OCCN(C)C(=O)Cn2cc(NC(=O)[C@@H]3CC[C@@H](Oc4ccccc4)C3)cn2)cc1 [Compound 8, (1R,3R)—N-(1-(2-(methyl(2-(p-tolyloxy)ethyl)amino)-2-oxoethyl)-1H-pyrazol-4-yl)-3-phenoxycyclopentanecarboxamide hydrochloride] | < 30%
Cc1ccc(OC2CCN(C(=O)Cn3cc(NC(=O)CCOc4ccccc4)cn3)CC2)cc1 [Compound 9] | < 30%
Cc1ccc(OC2CCCN(C(=O)Cn3cc(NC(=O)CCOc4ccccc4)cn3)C2)cc1 (stereo not shown) [Compound 11] | 30 to 50%
Cc1ccc(OCCN(C)C(=O)Cn2cc(NC(=O)[C@@H]3CCC[C@H](Oc4ccccc4)C3)cn2)cc1 [Compound 12] | < 30%
Cc1ccc(OCCN(C)C(=O)Cn2cc(NC(=O)[C@@H]3CCC[C@@H](Oc4ccccc4)C3)cn2)cc1 [Compound 13] | < 30%
Cc1ccc(OCCN(C)C(=O)Cn2cc(N(C)C(=O)C3CN(Cc4ccccc4)CCO3)cn2)cc1 (stereo not shown) [Compound 14] | < 30%
Cc1ccc(OCCN(C)C(=O)Cn2cc(N(C)C(=O)[C@@H]3CCCN(C(=O)c4ccccc4)C3)cn2)cc1 [Compound 15] | < 30%
Cc1ccc(OCCN(C)C(=O)Cn2cc(N(C)C(=O)[C@@H]3CCC(=O)N(Cc4ccccc4)C3)cn2)cc1 [Compound 16] | < 30%
Cc1ccc(OCCN(C)C(=O)Cn2cc(N(C)C(=O)C3CCC(Oc4ccccc4)CC3)cn2)cc1 (stereo not shown) [Compound 17] | < 30%
Cc1ccc(C2CCN(C(=O)Cn3cc(NC(=O)CCOc4ccccc4)cn3)C2)cc1 (stereo not shown) [Compound 18] | < 30%
Cc1ccc(OCCN(C)C(=O)Cn2cc(N(C)C(=O)[C@@H]3CCCC[C@@H]3c3ccccc3)cn2)cc1 [Compound 19] | < 30%
Cc1ccc(N2CCCN(C(=O)Cn3cc(NC(=O)CCOc4ccccc4)cn3)CC2)cc1 [Compound 23] | < 30%
Cc1ccc(Oc2ccc(N(C)C(=O)Cn3cc(NC(=O)CCOc4ccccc4Cl)cn3)cc2)cc1 [Compound 24] | 30 to 50%
COc1ccccc1OCCC(=O)Nc1cnn(CC(=O)N(C)c2ccc(Oc3ccc(C)cc3)cc2)c1 [Compound 25] | 30 to 50%

SMILES | activation at 10 µM
Cc1ccc(Oc2ccc(N(C)C(=O)Cn3cc(NC(=O)CCOc4cccc(C)c4)cn3)cc2)cc1 [Compound 26] | < 30%
Cc1ccc(OCCC(=O)Nc2cnn(CC(=O)N(C)c3ccc(Oc4ccc(C)cc4)cc3)c2)cc1 [Compound 27] | < 30%
Cc1ccc(C2CCCN(C(=O)Cn3cc(NC(=O)CCOc4ccccc4)cn3)C2)cc1 (stereo not shown) [Compound 28] | < 30%
O=C(CCOc1ccccc1)Nc1cnn(CC(=O)Nc2ccc(-n3cncn3)cc2)c1 [Compound 30] | < 30%
O=C(CCOc1ccccc1)Nc1cnn(CC(=O)Nc2ccc(C3CCCCC3)cc2)c1 [Compound 31] | < 30%
Cc1ccc(Oc2ccc(N(C)C(=O)Cn3cc(NC(=O)CCOc4ccccc4C)cn3)cc2)cc1 [Compound 32, N-(1-(2-(methyl(4-(p-tolyloxy)phenyl)amino)-2-oxoethyl)-1H-pyrazol-4-yl)-3-(o-tolyloxy)propanamide hydrochloride] | < 30%
O=C(CCOc1ccccc1)Nc1cnn(CC(=O)N2CCCN(c3ccc(F)cn3)CC2)c1 [Compound 33] | < 30%
Cc1ccccc1OCCC(=O)Nc1cnn(CC(=O)N(C)c2ccc(Oc3ccccc3)cc2)c1 [Compound 34] | < 30%
Cc1cccc(OCCC(=O)Nc2cnn(CC(=O)N(C)c3ccc(Oc4ccccc4)cc3)c2)c1 [Compound 35] | < 30%
Cc1ccc(OC2CCCN(C(=O)Cn3cc(NC(=O)CCOc4ccccc4C)cn3)C2)cc1 (stereo not shown) [Compound 36] | ≥ 50%
Cc1ccc(OCCC(=O)Nc2cnn(CC(=O)N3CCCC(Oc4ccc(C)cc4)C3)c2)cc1 (stereo not shown) [Compound 37] | 30 to 50%
Cc1ccc(OC2CCCN(C(=O)Cn3cc(NC(=O)CCOc4ccc(Cl)cc4)cn3)C2)cc1 (stereo not shown) [Compound 38] | 30 to 50%
Cc1ccc(OC2CCCN(C(=O)Cn3cc(NC(=O)CCOc4ccccc4Cl)cn3)C2)cc1 (stereo not shown) [Compound 39] | ≥ 50%
COc1ccccc1OCCC(=O)Nc1cnn(CC(=O)N2CCCC(Oc3ccc(C)cc3)C2)c1 (stereo not shown) [Compound 40] | 30 to 50%
COc1ccc(OCCC(=O)Nc2cnn(CC(=O)N3CCCC(Oc4ccc(C)cc4)C3)c2)cc1 (stereo not shown) [Compound 41, 3-(4-methoxyphenoxy)-N-(1-(2-oxo-2-(3-(p-tolyloxy)piperidin-1-yl)ethyl)-1H-pyrazol-4-yl)propanamide hydrochloride] | < 30%
CN(C(=O)Cn1cc(NC(=O)CCOc2ccccc2)cn1)c1ccc(Oc2ccc(C(F)(F)F)cc2)cc1 [Compound 42, N-(1-(2-(methyl(4-(4-(trifluoromethyl)phenoxy)phenyl)amino)-2-oxoethyl)-1H-pyrazol-4-yl)-3-phenoxypropanamide hydrochloride] | < 30%
Cc1cccc(OCCC(=O)Nc2cnn(CC(=O)N(C)c3ccccc3Oc3ccccc3)c2)c1 [Compound 43] | < 30%
Cc1ccccc1OCCC(=O)Nc1cnn(CC(=O)N(C)c2ccccc2Oc2ccccc2)c1 [Compound 44] | < 30%
Cc1ccc(C2CN(C(=O)Cn3cc(NC(=O)CCOc4ccccc4)cn3)CCN2C)cc1 (stereo not shown) [Compound 45, N-(1-(2-(4-methyl-3-(p-tolyl)piperazin-1-yl)-2-oxoethyl)-1H-pyrazol-4-yl)-3-phenoxypropanamide] | < 30%
COc1ccc(OCCC(=O)Nc2cnn(CC(=O)N3CCCCC(Oc4ccccc4)C3)c2)cc1 (stereo not shown) [Compound 47] | < 30%

SMILES | activation at 10 µM
Cc1ccc(OCCC(=O)Nc2cnn(CC(=O)N3CCCCC(Oc4ccccc4)C3)c2)cc1 (stereo not shown) [Compound 48] | < 30%
Cc1ccccc1OCCC(=O)Nc1cnn(CC(=O)N2CCCCC(Oc3ccccc3)C2)c1 (stereo not shown) [Compound 49] | < 30%
O=C(CCOc1ccc(Cl)cc1)Nc1cnn(CC(=O)N2CCCCC(Oc3ccccc3)C2)c1 (stereo not shown) [Compound 50] | < 30%
COc1ccccc1OCCC(=O)Nc1cnn(CC(=O)N2CCCCC(Oc3ccccc3)C2)c1 (stereo not shown) [Compound 51] | < 30%
O=C(CCOc1ccccc1)Nc1cnn(CC(=O)N2CCCN(Cc3ccncc3)CC2)c1 [Compound 52, N-(1-(2-oxo-2-(4-(pyridin-4-ylmethyl)-1,4-diazepan-1-yl)ethyl)-1H-pyrazol-4-yl)-3-phenoxypropanamide] | < 30%
Cc1ccccc1OCCC(=O)Nc1cnn(CC(=O)N(C)c2ccc(Oc3ccc(C(F)(F)F)cc3)cc2)c1 [Compound 53] | < 30%
CN(C(=O)Cn1cc(NC(=O)CCOc2ccccc2)cn1)c1ccc(Oc2ccc(C(F)(F)F)cc2)c(F)c1 [Compound 54] | < 30%
Cc1ccc(Oc2c(F)cc(N(C)C(=O)Cn3cc(NC(=O)CCOc4ccccc4)cn3)cc2F)cc1 [Compound 55] | < 30%
Cc1ccc(Oc2ccccc2N(C)C(=O)Cn2cc(NC(=O)CCOc3ccccc3)cn2)cc1 [Compound 57] | < 30%
Cc1ccc(C(F)(F)c2ccc(N(C)C(=O)Cn3cc(NC(=O)CCOc4ccccc4)cn3)cc2)cc1 [Compound 58] | < 30%
Cc1ccc(C2=CC(C)(C)Oc3cc(N(C)C(=O)Cn4cc(NC(=O)CCOc5ccccc5)cn4)ccc32)cc1 [Compound 59, N-(1-(2-((2,2-dimethyl-4-(p-tolyl)-2H-chromen-7-yl)(methyl)amino)-2-oxoethyl)-1H-pyrazol-4-yl)-3-phenoxypropanamide] | < 30%
Cc1ccc(OCCN(C)C(=O)Cn2cc(NC(=O)C3COc4ccccc4C3)cn2)cc1 (stereo not shown) [Compound 60] | < 30%
Cc1ccc(OCCN(C)C(=O)Cn2cc(NC(=O)C3CCCN(c4ccccc4)C3)cn2)cc1 (stereo not shown) [Compound 61] | < 30%
COc1ccc2c(c1)CC(C(=O)Nc1cnn(CC(=O)N(C)CCOc3ccc(C)cc3)c1)CO2 (stereo not shown) [Compound 63] | < 30%
Cc1ccc(OCCN(C)C(=O)Cn2cc(NC(=O)C3CCN(c4ccccc4)C3)cn2)cc1 (stereo not shown) [Compound 64] | < 30%
Cc1ccc(OC2COCCN(C(=O)Cn3cc(NC(=O)CCOc4ccccc4)cn3)C2)cc1 (stereo not shown) [Compound 65] | 30 to 50%
Cc1ccc(OCCN(C)C(=O)Cn2cc(NC(=O)C3CNc4ccccc4C3)cn2)cc1 (stereo not shown) [Compound 66] | < 30%
Cc1ccc(OCCN(C)C(=O)Cn2cc(NC(=O)C3COc4ccccc43)cn2)cc1 (stereo not shown) [Compound 67] | < 30%
